Where “and” joins values, the source holds several entries; their conditions need not be identical. Identical values can stand only once. Like-named read-outs stand apart in the source and are kept apart here. Bridges are numbered along the chain shown (N, C = ends).
Key:
[1] = tested on: LOS purified from N. gonorrhoeae strain 15253; format: in vivo; conditions: for mean anti-LOS IgG level: n=13
[2] = tested on: N. gonorrhoeae strain 15253; assay: Serum bactericidal activity of antisera raised against tetra-MAP candidates; format: cell-based; conditions: post-dose 5 IgM-depleted antiserum 1:3, 17% NHS; Sigma MPL adjuvant; compared with TMCP3, TMCP4
Method: See Tables 1A-1K for a description of peptides. Post-dose 5 mouse anti-serum (IgM depleted) was tested against N. gonorrhoeae strain 15253 at a final dilution of 1:3 in the presence of 17% normal human serum (NHS) as the complement source. Y-axis, % killing ([CFU at t0−CFU at t30/CFU at t0]×100).
(§1) Serum bactericidal assays were performed. Bacteria that had been harvested from an overnight culture on chocolate agar plates were repassaged onto fresh chocolate agar and allowed to grow for 6 h at 37° C. in an atmosphere containing 5% CO2. Bacteria were then suspended in HBSS containing 1 mM MgCl2 and 0.15 mM CaCl2) (HBSS++) for use in serum bactericidal assays. Briefly, about 2000 colony forming units (CFUs) of N. gonorrhoeae FA090 were incubated with serial dilutions of immune mouse sera (heat-inactivated and IgM-depleted) in the presence or absence of 20% normal human serum (NHS) as a source of human complement. Serum bactericidal assays with strain MS11 were performed with IgG and IgM depleted NHS (Human complement; Pel-Freez) because this strain is susceptible to killing by NHS. Final volumes of bactericidal reaction mixtures were 150 μl. Aliquots of 25-μl reaction mixtures were plated onto chocolate agar in duplicate at the beginning of the assay (to) and again after incubation at 37° C. for 30 min (t30). Survival was calculated as the number of viable colonies at t30 relative to t0.

[3] = tested on: N. gonorrhoeae strain FA1090; assay: Mouse vaginal colonization model (protection experiment); format: in vivo; conditions: BALB/c n=14/group; TMCP2 50 μg + GLA-SE, 3 doses 2 weeks apart
Method: Use of animals in this study was performed in strict accordance with the recommendations in the Guide for the Care and Use of Laboratory Animals of the National Institutes of Health. The protocol was approved by the Institutional Animal Care and Use Committee (IACUC) at the University of Massachusetts Medical School. The BALB/c mouse model of vaginal colonization described by Jerse was used (25). Two weeks after the last immunization, mice in the diestrus phase of the estrous cycle were started on treatment (that day) with 0.1 mg PREMARIN® (Pfizer; a mixture of sodium estrone sulfate and sodium equilin sulfate also containing sodium sulfate conjugates of 17α-dihydroequilin, 17α-estradiol and 17β-dihydroequilin) in 200 μl of water, given subcutaneously on each of three days; −2, 0 and +2 days (before, the day of and after gonococcal inoculation) to prolong the estrus phase of the reproductive cycle and promote susceptibility to N. gonorrhoeae infection. […]
Experiments that compared clearance of N. gonorrhoeae in independent groups of mice estimated and tested three characteristics of the data (13): 1) time to clearance; 2) longitudinal trends in mean log10 CFU; 3) and the cumulative CFU as area under the curve (AUC). […] A quadratic or cubic function in time was determined to provide the best fit; random slopes were linear in time. […]

N. gonorrhoeae FA1090 = assay: Serum bactericidal assay, immune mouse sera plus human complement; format: cell-based; conditions: for immune sera showing >50% killing: IgM-depleted sera at 1:30 (3.3%); for immune sera showing <50% survival (>50% killing): intact sera at 3.3% (1:30)
Method: […] Sera from mice diluted 1:1 in PBS was mixed with anti-mouse IgM agarose (Sigma; binding capacity ≥0.4 mg/ml) (1 volume of packed agarose to 1 volume of serum diluted 1:1) in a 2.0 ml microspin filter column (Costar) with a pore size of 0.22 μM) for 15 min at 22° C. Filter-sterilized IgM depleted sera were collected by centrifugation of the mixture at 1000 g for 2 min and heat-inactivated (56° C. for 30 min) to eliminate intrinsic complement activity in mouse serum prior to use in serum bactericidal assays where human complement was substituted.
as §1

N. gonorrhoeae MS11 = assay: as above; format: cell-based; conditions: for killing of MS11, all 13 immune sera: 50 μg/dose schedule
Method: Because earlier it was observed that sera from naïve and mice given adjuvant alone manifest bactericidal activity mediated by IgM, mouse IgM was depleted from all sera collected as part of immunization studies. Sera from mice diluted 1:1 in PBS was mixed with anti-mouse IgM agarose (Sigma; binding capacity ≥0.4 mg/ml) (1 volume of packed agarose to 1 volume of serum diluted 1:1) in a 2.0 ml microspin filter column (Costar) with a pore size of 0.22 μM) for 15 min at 22° C. Filter-sterilized IgM depleted sera were collected by centrifugation of the mixture at 1000 g for 2 min and heat-inactivated (56° C. for 30 min) to eliminate intrinsic complement activity in mouse serum prior to use in serum bactericidal assays where human complement was substituted.
as §1

[4] = TMCP2 50 μg + GLA-SE, 3 doses 2 weeks apart, 11 mice

[(CH2-CO-GPIPVLDENGLFAPGPC)-K-OH]4 ({CH2CO}-GPIPVLDENGLFAPGPCK-OH; thioether N-17; also: tetrameric MAP) [TMCP2]
anti-LOS IgG in vaginal swabs ([1]; 5 mice, TMCP2 50 μg/dose + GLA-SE at 0, 2, 4 weeks, 2 weeks after third dose): detected | anti-LOS IgG levels in intact immune sera, all mice ([1]; BALB/c, n=13 per group, TMCP2 50, 100 or 200 μg/dose + GLA-SE, 3 weeks apart): exceeded 2 μg/ml | anti-LOS IgG response in 3 of 5 mice ([1]; BALB/c, TMCP2 50 μg dose + GLA-SE, 3 doses): exceeded 10 μg/ml | anti-LOS IgG response, every mouse ([1]; BALB/c, TMCP2 50, 100 or 200 μg + GLA-SE, 3 doses 3 weeks apart, two weeks after final boosting): exceeded 2 μg/ml | mean anti-LOS level, post-dose 3 immune sera [1, 4]: 2.31 µg/mL | range of anti-LOS level, post-dose 3 immune sera [1, 4]: 1.33 to 3.59 µg/mL | mean anti-LOS IgG level ([1]; TMCP2 50 μg/dose + GLA-SE, 3 doses 3 weeks apart): 4.98 µg/mL | mean anti-LOS IgG level ([1]; TMCP2 100 μg/dose + GLA-SE, 3 doses 3 weeks apart): 4.06 µg/mL | mean anti-LOS IgG level ([1]; TMCP2 200 μg/dose + GLA-SE, 3 doses 3 weeks apart): 3.8 µg/mL | IgM response to the 2C7 epitope ([1]; pooled post-dose 3 sera, IgM binding to 15253 LOS vs 15253 ΔlgtG LOS): no apparent IgM response | anti-LOS titers in immunization experiments ([1]; tetrapeptides 50 μg/dose plus Sigma MPL adjuvant, BALB/c, FIG. 10): higher anti-LOS titers than TMCP4 | complement-dependent bactericidal activity of antisera [2]: maximal | gonococcal colonization, biweekly schedule [3]: effectively attenuated gonococcal colonization | killing of FA1090, one serum sample (N. gonorrhoeae FA1090; IgM-depleted post-dose 3 serum, 1:6 (16.7%), 50 μg/dose group): 47% | immune sera showing >50% killing (N. gonorrhoeae FA1090; 100 μg/dose group): Three of five | immune sera showing >50% killing (N. gonorrhoeae FA1090; 200 μg/dose group): three of four | Survival in intact immune serum (N. gonorrhoeae FA1090; Table 4, TMCP2 200 μg/dose + GLA-SE, immune serum 16.7% (1/6), 16.7% NHS): 0.00% and 6.19% | killing of FA1090 by intact immune sera, all sera (N. gonorrhoeae FA1090; final dilution 1:6 (16.7% immune serum), TMCP2 50, 100, 200 μg/dose + GLA-SE): > 50% | immune sera showing <50% survival (>50% killing) (N. gonorrhoeae FA1090; 50 μg/dose group): Four of 5 | immune sera showing <50% survival (>50% killing) (N. gonorrhoeae FA1090; 100 μg/dose group): 3 of 5 | immune sera showing <50% survival (>50% killing) (N. gonorrhoeae FA1090; 200 μg/dose group): 3 of 4 | killing of MS11, all 13 immune sera (N. gonorrhoeae MS11; immune serum 3.3%): > 60% | killing of MS11, all 13 immune sera (N. gonorrhoeae MS11; immune serum 6.7%): > 98% | complement-dependent killing of MS11, all sera in each group (N. gonorrhoeae MS11; 13 sera per group after 3rd dose, 16.7% (1/6 dilution)): > 50% | Survival in intact immune serum (N. gonorrhoeae MS11; Table 6, TMCP2 50 μg/dose + GLA-SE, immune serum 6.7% (1/15), 6.7% IgG/IgM-depleted NHS (Pel-Freez)): 0.00% and 1.52% and 0.47% and 0.93%
